Assay results taken from PMC3901259, “Characterisation of the Metabolites of 1,8-Cineole Transferred into Human Milk: Concentrations and Ratio of Enantiomers” (Metabolites, 2013).

How the values were obtained:
[1] = Quantification of 1,8-cineole metabolites in human milk (SAFE, GC-MS, internal standard and matrix calibration) after oral intake of 100 mg 1,8-cineole; assay type: in vivo; settings: for Absolute concentration in human milk: single determination
Source text: Human milk samples were provided voluntarily by breastfeeding mothers after intake of the non-prescription pharmaceutical Soledum® (Klosterfrau Healthcare Group, Cologne, Germany). Before the beginning of the study, the participants were informed verbally, as well as in written form, about the study procedure and purpose and they were told that withdrawing from the study was possible at any time without giving any reason. All volunteers gave written consent to the analysis of their milk samples and anonymous publication of the resulting data. The Ethical Committee of the Medical Faculty, University Erlangen-Nuremberg, approved the experimental procedures. Each participant was handed a copy of the Soldeum® package instructions and was advised to read it before capsule intake. They were also advised to withdraw from the study if any negative reactions such as medication allergies or interactions with other drugs they were taking were to be expected. Additionally, the volunteers were informed verbally about potential effects of the pharmaceutical preparation on breastfeeding, i.e. the risk of an altered milk flavour and rejection of the milk by the nursling. Accordingly, if this would happen, the mothers were recommended to feed their babies with stored human milk or formula milk products.
The milk donors were between the ages of 29 and 40 years (mean 34 years). During their participation in the study, their breast milk production had to be normal and in excess of their infants' needs, with no breast infections and no overall medical complaints present. Five participants were primiparous, three were multiparous and the breast milk samples were from 19 weeks to 19 months postpartum. For sampling, either electrical or mechanical breast pumps or manual expression techniques were applied, resulting in sample volumes between 10 and 100 mL. The samples were immediately subjected to sample preparation after a maximum storage time of five hours at 7 °C or were stored in a freezer at −20 °C for up to five days.
The participating volunteers were asked to ingest one Soledum® capsule, containing 100 mg 1,8-cineole, and to wait until they themselves or another person began to notice the eucalyptus-like odour on their breath. […] The donors were instructed to keep notes on the dates of capsule intake, first eucalyptus-like odour on their breath and exact sampling time. Unfortunately it was difficult for some mothers to detect the smell on their breath so they expressed the samples after some time without having noticed the smell, or reported having been unsure about the smell. […] Some of the donors repeated the whole experiment and some expressed more than one sample after the capsule intake, resulting in 14 samples in total, from 8 different mothers.
Extracts containing the volatile fraction of the human milk samples were prepared by Solvent Assisted Flavour Evaporation (SAFE) after addition of deuterated 1,8-cineole as internal standard (solution in dichloromethane), followed by 10 min of stirring, then another addition of dichloromethane (50% v/v), and 30 min of stirring. The resulting stable phase was distilled in the SAFE-apparatus at 50 °C and approximately 1x10^−4 mbar. The volatile fraction of the samples was frozen with liquid nitrogen. After thawing, it consisted of two phases, formed by the dichloromethane and by the water out of the milk. The water phase was extracted three times with dichloromethane, and the solvent phases were combined and dried over anhydrous Na2SO4. Finally the sample extracts were concentrated by microdistillation according to Bemelmans at 50 °C to a total volume of 50 to 200 μL.
For GC-MS analyses, an Agilent MSD quadrupole system (GC 7890A with MSD 5975C, Agilent Technologies, Waldbronn, Germany) coupled with a CIS 4C (cooled injection system) and an MPS 2 auto-sampler (Gerstel GmbH & Co. KG, Duisburg, Germany) were used. […]

[2] = Determination of the ratios of enantiomers of chiral metabolites in human milk on chiral GC capillaries; assay type: in vivo; settings: for Percentage E1: B-2b, B-2c of the same parent
Source text: The separation of the chiral metabolites of 1,8-cineole was successfully achieved using different β- or γ-cyclodextrin-based stationary phases (Rt-bDEXsa, Rt-bDEXse, Rt-bDEXsm and Rt-yDEXsa) for gas chromatographic analysis. Table S1, in the supplementary material, lists the usable separation phases and the respective retention indices (determined according to van den Dool and Kratz) for each pair of enantiomers. It was therefore decided to use the following capillaries for the analysis of the human milk samples: Rt-bDEXsm for separation of 2,3-dehydro-, α2,3-epoxy-, 2-oxo-, 3-oxo- and 9-hydroxy-1,8-cineole, and Rt-yDEXsa for separation of α2-hydroxy-, α3-hydroxy- and β2-hydroxy-1,8-cineole, under the GC conditions described in the experimental section.
For GC-MS analyses, an Agilent MSD quadrupole system (GC 7890A with MSD 5975C, Agilent Technologies, Waldbronn, Germany) coupled with a CIS 4C (cooled injection system) and an MPS 2 auto-sampler (Gerstel GmbH & Co. KG, Duisburg, Germany) were used. Data collection and analysis were performed with the MSD ChemStation E.02.00.493 (Agilent Technologies, Inc.) software. Quantification experiments were carried out on DB-FFAP and DB-5 capillaries (30 m length, 0.25 mm inner diameter, 0.25 µm film thickness, Agilent J&W GC Columns, USA), and for monitoring of the ratio of enantiomers the chiral capillaries Rt-bDEXsa, Rt-bDEXse, Rt-bDEXsm and Rt-yDEXsa (30 m length, 0.32 mm inner diameter, 0.25 µm film thickness, Restek GmbH, Bad Homburg, Germany) were utilised. Pre-columns of uncoated, deactivated fused silica (0.53 mm inner diameter, 0.5 to 3.5 m length) were used to ensure that no potentially present low-volatile residues could contaminate the analytical capillaries. The temperature programme of the column oven was as follows: 40 °C for 2 min, 4 °C/min up to 170 °C, 40 °C/min up to 230 °C (Rt-DEX capillaries), 240 °C (DB-FFAP) and 250 °C (DB-5), respectively, and hold time at end temperature of 5 to 10 min. As carrier gas, helium was used at a flow rate of 1.3 mL/min (velocity 41.1 cm/s). Injection of 1 or 2 µL was performed by the auto-sampler.
For the separation of the pairs of enantiomers of the chiral metabolites of 1,8-cineole, four different capillaries (Rt-bDEXsa, Rt-bDEXse, Rt-bDEXsm, and Rt-yDEXsa) were evaluated for optimisation of the peak-to-peak resolution of the enantiomers by injecting a mixture of all the metabolites in a dichloromethane solution and by varying the heating rate. Besides the separation of each pair of enantiomers from each other, it was also important to confirm that no other metabolite coeluted with any one of the enantiomers, because the milk samples would most probably contain all metabolites. Moreover, the separation conditions for the mixture of reference substances were also tested on some human milk sample extracts and modified accordingly, where necessary, to avoid coelution with interfering matrix compounds.
For calculation of the ratio of enantiomers (that is, the relative abundance of each enantiomer to the not separated mixture of enantiomers), the peak area of each enantiomer was divided by the sum of the peak areas of both enantiomers and multiplied by 100. With the known concentrations of the chiral metabolites in each milk sample, the absolute concentration of each single enantiomer was also calculated by multiplying the concentration with the respective percentage.

[3] = parameters: method as in PMID 20425757; settings: one volunteer, sage tea, overall intake 1.02 mg 1,8-cineole; cited from earlier work
[4] = parameters: method as in doi:10.1002/cplu.201200253; settings: urine after 100 mg 1,8-cineole; cited from earlier work
[5] = sample A-1b (odour yes), oral 100 mg 1,8-cineole, values given with (<x) are approximations
[6] = sample B-1 (odour yes), oral 100 mg 1,8-cineole, values given with (<x) are approximations
[7] = sample B-2a (no odour), oral 100 mg 1,8-cineole
[8] = sample B-2b (odour yes), oral 100 mg 1,8-cineole, values given with (<x) are approximations
[9] = sample B-2c (no odour), oral 100 mg 1,8-cineole
[10] = sample D-2 (odour yes), oral 100 mg 1,8-cineole, values given with (<x) are approximations
[11] = sample E-2 (odour yes), oral 100 mg 1,8-cineole, values given with (<x) are approximations
[12] = sample G (odour yes), oral 100 mg 1,8-cineole, values given with (<x) are approximations
[13] = sample H (odour yes), oral 100 mg 1,8-cineole, values given with (<x) are approximations
[14] = sample D-1 (no odour), oral 100 mg 1,8-cineole, values given with (<x) are approximations

Row | Absolute concentration in human milk [1, 5] [µg/kg] | Absolute concentration in human milk [1, 6] [µg/kg] | Absolute concentration in human milk [1, 7] [µg/kg] | Absolute concentration in human milk [1, 8] [µg/kg] | Absolute concentration in human milk [1, 9] [µg/kg] | Absolute concentration in human milk [1, 10] [µg/kg] | Absolute concentration in human milk [1, 11] [µg/kg] | Absolute concentration in human milk [1, 12] [µg/kg] | Absolute concentration in human milk [1, 13] [µg/kg] | Absolute concentration in human milk [1, 14] [µg/kg] | Structure (SMILES) | Presence in human urine [4] | further results
1 | 0.46 | 0.87 | 0.18 | 15.52 | 0.15 | 0.46 | 16.95 | 0.73 | 1.83 | – | CC12CCC(CC1)C(C)(CO)O2 (stereo not shown) [9-hydroxy-1,8-cineole] | – | Estimated maximum level in human milk (concentration calculated with the last calibration point, in parentheses) ([1]; sample A-1b (odour yes)): < 1.08 µg/kg; Estimated maximum level in human milk (concentration calculated with the last calibration point, in parentheses) ([1]; sample B-1 (odour yes)): < 1.57 µg/kg; Estimated maximum level in human milk (concentration calculated with the last calibration point, in parentheses) ([1]; sample D-2 (odour yes)): < 1.82 µg/kg; Estimated maximum level in human milk (concentration calculated with the last calibration point, in parentheses) ([1]; sample G (odour yes)): < 3.33 µg/kg; Estimated maximum level in human milk (concentration calculated with the last calibration point, in parentheses) ([1]; sample H (odour yes)): < 1.86 µg/kg; Percentage E1 ([2]; one of the three samples B-2a): about 80%; Percentage E1 ([2]; the two other samples of B-2a): about 50%; Concentration in plasma [3]: 5.61 ng/mL
2 | 4.07 | 13.65 | 0.07 | 2.80 | 0.57 | 5.13 | 9.63 | 21.24 | 37.69 | 0.45 | CC12C=CC(CC1)C(C)(C)O2 (stereo not shown) [2,3-dehydro-1,8-cineole, 2,3-Dehydro-1,8-cineole] | could not be found | Estimated maximum level in human milk (concentration calculated with the last calibration point, in parentheses) ([1]; sample A-1a (no odour)): < 1.26 µg/kg; Absolute concentration in human milk ([1]; sample A-1a (no odour), oral 100 mg 1,8-cineole, values given with (<x) lie beyond calibration range, approximation): 0.28 µg/kg; Estimated maximum level in human milk (concentration calculated with the last calibration point, in parentheses) ([1]; sample C (no odour)): < 0.88 µg/kg; Absolute concentration in human milk ([1]; sample C (no odour; very weak odour not caused by 1,8-cineole), oral 100 mg 1,8-cineole, values given with (<x) are approximations): 0.73 µg/kg; Estimated maximum level in human milk (concentration calculated with the last calibration point, in parentheses) ([1]; sample D-1 (no odour)): < 0.97 µg/kg; Estimated maximum level in human milk (concentration calculated with the last calibration point, in parentheses) ([1]; sample E-1 (no odour)): < 1.21 µg/kg; Absolute concentration in human milk ([1]; sample E-1 (no odour), oral 100 mg 1,8-cineole, values given with (<x) are approximations): 0.19 µg/kg; Absolute concentration in human milk ([1]; sample F (no odour), parent ingested two capsules, values given with (<x) are approximations): 0.59 µg/kg; Estimated maximum level in human milk (concentration calculated with the last calibration point, in parentheses) ([1]; sample F (no odour), two capsules): < 2.40 µg/kg; Percentage E1 in single sample (outlier) ([2]; human milk sample B-2a, excluded from Table 3): 100%
3 | 2.48 | 7.65 | – | 2.18 | 0.66 | 4.13 | 4.65 | 4.52 | 6.82 | 1.35 | CC1(C)OC2(C)CCC1C1OC12 (stereo not drawn) [a2,3-epoxy-1,8-cineole, α2,3-epoxy-1,8-cineole] | could not be found | Estimated maximum level in human milk (concentration calculated with the last calibration point, in parentheses) ([1]; sample B-2b (odour yes)): < 2.45 µg/kg
